This passage reports EC50 results from patent US9278922B2 (ABBVIE INC., priority 2009, dated 2016).

Broadly, the EC50 is the concentration giving half of the maximal effect.

In the experiment the test system is HCV 1b-Con-1 replicon. The experiment in a line: HCV 1b-Con-1 replicon assay (luciferase reporter gene, HuH-7 cells). It is filed as cell-based, Hepatitis C virus (HCV) genotype 1b-Con1. The following applies: Hepatitis C virus, Huh-7, luciferase reporter gene activity in the replicon, in the presence of 5% FBS.

Turning to `CC(C)C(C(=O)N1CCC[C@H]1C(=O)Nc1ccc(CN(Cc2ccc(NC(=O)[C@@H]3CCCN3C(=O)C(c3ccccc3)C(C)C)cc2)c2ccc(F)cc2)cc1)c1ccccc1` (stereo partly drawn) [Example 108, (2S,2′S)-N,N′-{[(4-fluorophenyl)imino]bis(methanediylbenzene-4,1-diyl)}bis[1-(3-methyl-2-phenylbutanoyl)pyrrolidine-2-carboxamide]], the EC50 lay in the range of 1 to 10 nM.
`COC(=O)N[C@H](C(=O)N1C[C@@H]2C[C@@H]2[C@H]1C(=O)Nc1ccc(CN(Cc2ccc(NC(=O)[C@@H]3[C@H]4C[C@H]4CN3C(=O)[C@@H](NC(=O)OC)C(C)(C)C)cc2)c2ccc(F)cc2)cc1)C(C)(C)C` [Example 109, methyl [(1S)-1-{[(1S,2S,5R)-2-{[4-({(4-fluorophenyl)[4-({[(1S,2S,5R)-3-{(2S)-2-[(methoxycarbonyl)amino]-3,3-dimethylbutanoyl}-3-azabicyclo[3.1.0]hex-2-yl]carbonyl}amino)benzyl]amino}methyl)phenyl]carbamoyl}-3-azabicyclo[3.1.0]hex-3-yl]carbonyl}-2,2-dimethylpropyl]carbamate]: the concentration giving a half-maximal response (EC50) is 10 to 100 nM.
Then `O=C(Nc1ccc(CN(Cc2ccc(NC(=O)[C@@H]3CCCN3C(=O)[C@H](O)c3ccccc3)cc2)c2ccc(F)cc2)cc1)[C@@H]1CCCN1C(=O)[C@H](O)c1ccccc1` [Example 110, (2S ,2′S)-N,N′-{[(4-fluorophenyl)imino]bis(methanediylbenzene-4,1-diyl)}bis{1-[(2R)-2-hydroxy-2-phenylacetyl]pyrrolidine-2-carboxamide}], with below 1 nM; and `CC(C)(C)[C@H](Nc1ncccn1)C(=O)N1CCC[C@H]1C(=O)Nc1ccc(CN(Cc2ccc(NC(=O)[C@@H]3CCCN3C(=O)[C@@H](Nc3ncccn3)C(C)(C)C)cc2)c2ccccc2)cc1` [Example 111, (2S,2′S)-N,N′-[(phenylimino)bis(methanediylbenzene-4,1-diyl)]bis{1-[(2S)-3,3-dimethyl-2-(pyrimidin-2-ylamino)butanoyl]pyrrolidine-2-carboxamide}], with 1 to 10 nM; and `CC[C@H](NC(=O)OC)C(=O)N1CCC[C@H]1C(=O)Nc1ccc(CN(Cc2ccc(NC(=O)[C@@H]3CCCN3C(=O)[C@H](CC)NC(=O)OC)cc2)c2ccc(F)cc2)cc1` [Example 112, dimethyl ([(4-fluorophenyl)imino]bis{methanediylbenzene-4,1-diylcarbamoyl(25)pyrrolidine-2,1-diyl[(2S)-1-oxobutane-1,2-diyl]})biscarbamate], with 1 to 10 nM.
Then `CC(=O)O[C@H](C(=O)N1CCC[C@H]1C(=O)Nc1ccc(CN(Cc2ccc(NC(=O)[C@@H]3CCCN3C(=O)[C@H](OC(C)=O)c3ccccc3)cc2)c2ccc(F)cc2)cc1)c1ccccc1` [Example 113, [(4-fluorophenyl)imino]bis[methanediylbenzene-4,1-diylcarbamoyl(2S)pyrrolidine-2,1-diyl(1R)-2-oxo-1-phenylethane-2,1-diyl]diacetate], with below 1 nM; and `COC(=O)N[C@H](C(=O)N1CCC[C@H]1C(=O)Nc1ccc(CN(Cc2ccc(NC(=O)[C@@H]3CCCN3C(=O)[C@@H](c3ccccc3)N3CCCCC3)cc2)c2ccc(F)cc2)cc1)[C@H]1CCOC1` [Example 114, methyl {(1S)-2-{(2S)-2-[(4-{[(4-fluorophenyl){4-[({(2S)-1-[(2R)-2-phenyl-2-piperidin-1-ylacetyl]pyrrolidin-2-yl}carbonyl)amino]benzyl}amino]methyl}phenyl)carbamoyl]pyrrolidin-1-yl}-2-oxo-1-[(3R)-tetrahydrofuran-3-yl]ethyl}carbamate], with below 1 nM.
Then `CC[C@H](NC(=O)OC)C(=O)N1CCC[C@H]1C(=O)Nc1ccc(CN(Cc2ccc(NC(=O)[C@@H]3CCCN3C(=O)[C@@H](c3ccccc3)N3CCCCC3)cc2)c2ccc(F)cc2)cc1` [Example 115, methyl [(1S)-1-({(2S)-2-[(4-{[(4-fluorophenyl){4-[({(2S)-1-[(2R)-2-phenyl-2-piperidin-1-ylacetyl]pyrrolidin-2-yl}carbonyl)amino]benzyl}amino]methyl}phenyl)carbamoyl]pyrrolidin-1-yl}carbonyl)propyl]carbamate], with below 1 nM; and `O=C(Nc1ccc(CN(Cc2ccc(NC(=O)[C@@H]3CCCN3C(=O)C(c3ccccc3)N3CC[C@@H](F)C3)cc2)c2ccc(F)cc2)cc1)[C@@H]1CCCN1C(=O)C(c1ccccc1)N1CC[C@@H](F)C1` (stereo partly drawn) [Example 116, (2S,2′S)-N,N′-{[(4-fluorophenyl)imino]bis(methanediylbenzene-4,1-diyl)}bis(1-{[(3R)-3-fluoropyrrolidin-1-yl](phenyl)acetyl}pyrrolidine-2-carboxamide)], with below 1 nM; and `O=C(Nc1ccc(CN(Cc2ccc(NC(=O)[C@@H]3CCCN3C(=O)C(c3ccccc3)N3CC[C@H](F)C3)cc2)c2ccc(F)cc2)cc1)[C@@H]1CCCN1C(=O)C(c1ccccc1)N1CC[C@H](F)C1` (stereo partly drawn) [Example 119, (2S,2′S)-N,N′-{[(4-fluorophenyl)imino]bis(methanediylbenzene-4,1-diyl)}bis(1-{[(3S)-3-fluoropyrrolidin-1-yl](phenyl)acetyl}pyrrolidine-2-carboxamide)], with below 1 nM.
Regarding `CC(C)(C)[C@H](Nc1nccs1)C(=O)N1CCC[C@H]1C(=O)Nc1ccc(CN(Cc2ccc(NC(=O)[C@@H]3CCCN3C(=O)[C@@H](Nc3nccs3)C(C)(C)C)cc2)c2ccccc2)cc1` [Example 121, (2S,2′S)-N,N′-[(phenylimino)bis(methanediylbenzene-4,1-diyl)]bis{1-[(2S)-3,3-dimethyl-2-(1,3-thiazol-2-ylamino)butanoyl]pyrrolidine-2-carboxamide}], the EC50 was below 1 nM.
`CCN(C(C)=O)[C@@H](C(=O)N1CCC[C@H]1C(=O)Nc1ccc(CN(Cc2ccc(NC(=O)[C@@H]3CCCN3C(=O)[C@@H](c3ccccc3)N(CC)C(C)=O)cc2)c2ccc(F)cc2)cc1)c1ccccc1` [Example 122, (2S,2′S)-N,N′-{[(4-fluorophenyl)imino]bis(methanediylbenzene-4,1-diyl)}bis(1-{(2R)-2-[acetyl(ethyl)amino]-2-phenylacetyl}pyrrolidine-2-carboxamide)]: the EC50 lay in the range of 10 to 100 nM.
As for `COC(=O)N[C@H](C(=O)N1[C@H](C(=O)Nc2ccc(CN(Cc3ccc(NC(=O)[C@@H]4C[C@@H]5CCC[C@@H]5N4C(=O)[C@@H](NC(=O)OC)C(C)(C)C)cc3)c3ccc(F)cc3)cc2)C[C@@H]2CCC[C@@H]21)C(C)(C)C` [Example 123, dimethyl ([(4-fluorophenyl)imino]bis{methanediylbenzene-4,1-diylcarbamoyl(2S,3aS,6aS)hexahydrocyclopenta[b]pyrrole-2,1(2H)-diyl[(2S)-3,3-dimethyl-1-oxobutane-1,2-diyl]})biscarbamate], the EC50 is below 1 nM.
`O=C(Nc1ccc(CN(Cc2ccc(NC(=O)[C@@H]3C[C@@H]4CCC[C@@H]4N3C(=O)[C@@H](c3ccccc3)N3CCCCC3)cc2)c2ccc(F)cc2)cc1)[C@@H]1C[C@@H]2CCC[C@@H]2N1C(=O)[C@@H](c1ccccc1)N1CCCCC1` [Example 124, (2S,3aS,6aS,2′S,3a′S,6a′S)-N,N′-{[(4-fluorophenyl)imino]bis(methanediylbenzene-4,1-diyl)}bis{1-[(2R)-2-phenyl-2-piperidin-1-ylacetyl]octahydrocyclopenta[b]pyrrole-2-carboxamide}]: the concentration giving a half-maximal response (EC50) is below 1 nM.
Take `COC(=O)N[C@H](C(=O)N1CC=C[C@H]1C(=O)Nc1ccc(CN(Cc2ccc(NC(=O)[C@@H]3C=CCN3C(=O)[C@@H](NC(=O)OC)C(C)(C)C)cc2)c2ccc(F)cc2)cc1)C(C)(C)C` [Example 125, methyl [(1S)-1-{[(2S)-2-{[4-({(4-fluorophenyl)[4-({[(2S)-1-{(2S)-2-[(methoxycarbonyl)amino]-3,3-dimethylbutanoyl}-2,5-dihydro-1H-pyrrol-2-yl]carbonyl}amino)benzyl]amino}methyl)phenyl]carbamoyl}-2,5-dihydro-1H-pyrrol-1-yl]carbonyl}-2,2-dimethylpropyl]carbamate]: the EC50 was below 1 nM.
Regarding `O=C(Nc1ccc(CN(Cc2ccc(NC(=O)[C@@H]3COCN3C(=O)OCc3ccccc3)cc2)c2ccc(F)cc2)cc1)[C@@H]1COCN1C(=O)OCc1ccccc1` [Example 126, dibenzyl (4S,4′S)-4,4′-{[(4-fluorophenyl)imino]bis(methanediylbenzene-4,1-diylcarbamoyl)}bis(1,3-oxazolidine-3-carboxylate)], the EC50 lay in the range of 10 to 100 nM.
The same measure for `O=C(Nc1ccc(CN(Cc2ccc(NC(=O)[C@@H]3C[C@H](O)CN3C(=O)[C@@H](c3ccccc3)N3CCCCC3)cc2)c2ccc(F)cc2)cc1)[C@@H]1C[C@H](O)CN1C(=O)[C@@H](c1ccccc1)N1CCCCC1` [Example 127, (2S,4S,2′S,4′S)-N,N′-{[(4-fluorophenyl)imino]bis(methanediylbenzene-4,1-diyl)}bis{4-hydroxy-1-[(2R)-2-phenyl-2-piperidin-1-ylacetyl]pyrrolidine-2-carboxamide}]: below 1 nM.
Turning to `CCN[C@@H](C(=O)N1CCC[C@H]1C(=O)Nc1ccc(CN(Cc2ccc(NC(=O)[C@@H]3CCCN3C(=O)[C@H](NCC)c3ccccc3)cc2)c2ccc(F)cc2)cc1)c1ccccc1` [Example 131, (2S,2′S)-N,N′-{[(4-fluorophenyl)imino]bis(methanediylbenzene-4,1-diyl)}bis{1-[(2R)-2-(ethylamino)-2-phenylacetyl]pyrrolidine-2-carboxamide}], the EC50 was below 1 nM.
With `CCN(C(C)C)[C@@H](C(=O)N1CCC[C@H]1C(=O)Nc1ccc(CN(Cc2ccc(NC(=O)[C@@H]3CCCN3C(=O)[C@@H](c3ccccc3)N(CC)C(C)C)cc2)c2ccc(F)cc2)cc1)c1ccccc1` [Example 132, (2S,2′S)-N,N′-{[(4-fluorophenyl)imino]bis(methanediylbenzene-4,1-diyl)}bis(1-{(2R)-2-[ethyl(1-methylethyl)amino]-2-phenylacetyl}pyrrolidine-2-carboxamide)], the EC50 was below 1 nM.
`COC(=O)N[C@H](C(=O)N1CCC[C@H]1C(=O)Nc1ccc(CN(Cc2ccc(NC(=O)[C@@H]3CCCN3C(=O)[C@@H](NC(=O)OC)C3CCCC3)cc2)c2ccc(F)cc2)cc1)C1CCCC1` [Example 133, dimethyl ([(4-fluorophenyl)imino]bis{methanediylbenzene-4,1-diylcarbamoyl(2S)pyrrolidine-2,1-diyl[(1S)-1-cyclopentyl-2-oxoethane-2,1-diyl]})biscarbamate]: the EC50 was below 1 nM.
